Tests used:
[1] = UV-Vis calibration: molar attenuation coefficient at 357 nM in isopropanol; assay type: physicochemical; conditions: run in triplicate, per mole of compound or dendrimer conjugate
Description: Avobenzone and the avobenzone conjugates were each dissolved in isopropanol and the titrations were run in triplicate to calculate extinction coefficients for each conjugate.
UV analysis was run on each conjugate to test the absorbance and degradation profile of each compound. The linker and scaffold must not shift the UV absorbance profile of the avobenzone if it is to be used as an additive in sunscreen formulations. Otherwise, it might no longer be active as a UV-A filter. UV calibrations were run for free avobenzone, avobenzone with linker, and each class and generation of dendrimer-avobenzone conjugate to compare the modified molecules to the original under the same conditions.
The molar attenuation coefficient for each compound was calculated at 357 nM, the absorption maximum in the UVA-1 range. […] Additionally, no shift was observed after ligation to the dendrimer scaffolds.
Extinction coefficient curves were taken in isopropanol, a protic solvent known to stabilize avobenzone under UV irradiation, allowing the curve to be run on a single sample of avobenzone per curve without loss of activity (Mturi et al., J. Phoochem. Pholobiol. 200:410-20 (2008), which is hereby incorporated by reference in its entirety).

[2] = UV decay / UV stability: change of absorbance under UV lamp over four hours; assay type: physicochemical; conditions: ethyl acetate, UV lamp 365 nM, peak at 357 nm, triplicate, average
Description: Avobenzone and the avobenzone conjugates were each dissolved in ethyl acetate, unless otherwise noted, and sealed in airtight quartz cuvettes. […] The avobenzone decay curves were run in triplicate and extra decay curves run in duplicate. UV stability experiments were run in triplicate in ethyl acetate (Mturi et al., J. Photochem. […] Unlike isopropanol, this solvent is known to encourage degradation and was chosen so that the experimental time scales would be similar to the time scale of sun exposure in vivo. Due to FDA regulations, all commercial sunscreens are labeled with instructions to reapply every two hours. The avobenzone systems were tested over four hours, double that time. The avobenzone, avobenzone linker, or avobenzone-dendrimer conjugate was dissolved in a small amount of isopropanol. In each study 90 μL of the stock solution was added to 3 mL of ethyl acetate and sealed in an airtight quartz cuvette. The initial absorptions were measured and the samples were sealed in quartz cuvettes and left under a UV lamp emitting at 365 nM. The absorption profile was measured at regular intervals.

With COc1ccc(C(=O)CC(=O)c2ccc(C(C)(C)C)cc2)cc1 [bare avobenzone, 4-Tert-butyl-4′-methoxydibenzoylmethane] the “molar attenuation coefficient (for the compound / conjugate)” value [1] was 1,039 M^−1 cm^−1 and the “final absorbance as % of the initial absorbance” value [2] was 90.7±1.4%.
For COc1ccc(C(=O)C(CCCCCCCCCCCO)C(=O)c2ccc(C(C)(C)C)cc2)cc1 (stereo not shown) [avobenzone with linker], the “molar attenuation coefficient (for the compound / conjugate)” value [1] was 2,899 M^−1 cm^−1 and the “final absorbance as % of the initial absorbance” value [2] was 108±1.8%.

Source: US11291620B2, “Avobenzone-dendrimer conjugates” (NEW YORK UNIVERSITY, priority 2018, dated 2022)
